Measured values as given in patent US11096865B2, “Preservative removal from eye drops” (TearClear Corp., priority 2019, dated 2021).

Experiment: 30 day drop test, API retention after dropper tip packed with OxPO
Format: physicochemical
Conditions: for API concentration in drops: tip packed with OxHDPE A-C 395, 125-250 μm, acid washed
Protocol: To 60.0 g of ultrapure water was added 0.090 g hydroxyethyl cellulose (Natrosol 250H) and the solution was stirred overnight to dissolve. Subsequently, 0.176 g sodium citrate dihydrate and 0.960 g mannitol were added and the mixture was stirred until completely dissolved. 1.37 g Dorzolamide Hydrochloride, 0.420 g Timolol Maleate and 0.045 g of a 10% aqueous solution of BAK were added and incorporated. The pH was adjusted to 5.65 with 0.01N NaOH solution. The final nominal concentrations are reported below.
An empty dropper tip equipped with a 25 μm filter at the tip exit was packed with approximately […] of OxPO and the backing filter was attached to retain the OxPO packing in place. The weight of the OxPO packing was recorded. The packed tip was then inserted into the neck of an 8 ml dropper bottle containing 5 ml of the API/BAK test solution.
5 ml of the formulation described above containing nominally 5.0 mg/ml Timolol, 20.0 mg/ml Dorzolamide and 75 μg/ml BAK was loaded into six eyedropper bottles packed with OxHDPE (A-C 395, 125-250 μm, acid washed) as described above. Drops were obtained from each bottle twice a day (AM and PM 8 hours apart) and analyzed by HPLC for API and BAK.

## CC(C)(C)NC[C@H](O)COc1nsnc1N1CCOCC1 [Timolol]
Day 1A
  API concentration in drops: 4.93 mg/mL
Day 1P
  API concentration in drops: 4.91 mg/mL
Day 2A
  API concentration in drops: 4.51 mg/mL
Day 2P
  API concentration in drops: 4.64 mg/mL
Day 3A
  API concentration in drops: 4.60 mg/mL
Day 3P
  API concentration in drops: 4.65 mg/mL
Day 4A
  API concentration in drops: 4.59 mg/mL
Day 4P
  API concentration in drops: 4.72 mg/mL
Day 5A
  API concentration in drops: 4.68 mg/mL
Day 5P
  API concentration in drops: 4.78 mg/mL
Day 6A
  API concentration in drops: 4.76 mg/mL
Day 6P
  API concentration in drops: 4.90 mg/mL
Day 7A
  API concentration in drops: 4.86 mg/mL
Day 7P
  API concentration in drops: 4.91 mg/mL
Day 8A
  API concentration in drops: 4.85 mg/mL
Day 8P
  API concentration in drops: 4.89 mg/mL
Day 9A
  API concentration in drops: 4.84 mg/mL
Day 9P
  API concentration in drops: 4.87 mg/mL
Day 10A
  API concentration in drops: 4.89 mg/mL
Day 10P
  API concentration in drops: 4.90 mg/mL
Day 11A
  API concentration in drops: 4.89 mg/mL
Day 11P
  API concentration in drops: 4.96 mg/mL
Day 12A
  API concentration in drops: 4.86 mg/mL
Day 12P
  API concentration in drops: 4.95 mg/mL
Day 13A
  API concentration in drops: 4.89 mg/mL
Day 13P
  API concentration in drops: 4.93 mg/mL
Day 14A
  API concentration in drops: 4.86 mg/mL
Day 14P
  API concentration in drops: 4.97 mg/mL
Day 15A
  API concentration in drops: 4.87 mg/mL
Day 15P
  API concentration in drops: 4.93 mg/mL
Day 16A
  API concentration in drops: 4.90 mg/mL
Day 16P
  API concentration in drops: 5.01 mg/mL
Day 17A
  API concentration in drops: 4.90 mg/mL
Day 17P
  API concentration in drops: 4.97 mg/mL
Day 18A
  API concentration in drops: 4.98 mg/mL
Day 18P
  API concentration in drops: 4.97 mg/mL
Day 19A
  API concentration in drops: 4.87 mg/mL
Day 19P
  API concentration in drops: 4.98 mg/mL
Day 20A
  API concentration in drops: 4.99 mg/mL
Day 20P
  API concentration in drops: 5.02 mg/mL
Day 21A
  API concentration in drops: 4.92 mg/mL
Day 21P
  API concentration in drops: 4.95 mg/mL
Day 22A
  API concentration in drops: 4.98 mg/mL
Day 22P
  API concentration in drops: 4.93 mg/mL
Day 23A
  API concentration in drops: 4.96 mg/mL
Day 23P
  API concentration in drops: 4.97 mg/mL
Day 24A
  API concentration in drops: 4.94 mg/mL
Day 24P
  API concentration in drops: 4.96 mg/mL
Day 25A
  API concentration in drops: 4.90 mg/mL
Day 25P
  API concentration in drops: 4.93 mg/mL
Day 26A
  API concentration in drops: 4.97 mg/mL
Day 26P
  API concentration in drops: 4.96 mg/mL
Day 27A
  API concentration in drops: 4.96 mg/mL
Day 27P
  API concentration in drops: 4.97 mg/mL
Day 28A
  API concentration in drops: 4.93 mg/mL
Day 28P
  API concentration in drops: 4.95 mg/mL
Day 29A
  API concentration in drops: 4.90 mg/mL
Day 29P
  API concentration in drops: 4.93 mg/mL
Day 30A
  API concentration in drops: 4.98 mg/mL
Day 30P
  API concentration in drops: 4.97 mg/mL
Initial formulation
  API concentration: 5.04 (mg/ml)
